The values that follow come from patent US20130095059A1, “INHALED NO DONOR KMUPS DERIVATIVE PREVENTING ALLERGIC PULMONARY VASCULAR AND BRONCHIAL INFLAMMATION VIA SUPPRESSED CYTOKINES, INOS AND INFLAMMATORY CELL COUNTS IN ASTHMA MODEL” (priority 2007, published 2013).

The subject of one assay is iNOS. The assay is described as follows: Ovalbumine model, iNOS expression. The conditions noted are these: non-treatment allergic animal 100 %. It counts as in vivo, BALB/c mice.
The next assay relates to ROCKII. The assay is described as follows: Protein expression (optical density %) after KMUPs salts, ROCKII. It counts as cell-based. The conditions noted are these: 10 μM, 120 min; without treatment control 100 %.
In assay [1] the test system is BALF cells. Put plainly: Ovalbumine model, bronchoalveolar lavage cell counts. It counts as in vivo, BALB/c mice. As to conditions: oral 2.5 mg Kg^−1; for Neurophil: OVA 1.0 ± 0.2; for Lymphocyte / monocyte: OVA 2.4 ± 0.3; for (Table 5) / Eosinophil: OVA 37.2 ± 2.8; for Total cells: OVA 65.3 ± 3.4.
The next assay relates to eNOS. The assay is described as follows: Protein expression (optical density %) after KMUPs salts, eNOS. It counts as cell-based. As to conditions: 10 μM, 120 min; without treatment control 100 %.
The test system of assay [2] is MMP-9. Put plainly: Ovalbumine model, MMP-9 expression, zymography and immunostaining. As to conditions: oral 2.5 mg Kg^−1; non-treatment allergic animal 100 %. Format: in vivo, BALB/c mice.
Assay [3] concerns BALF cells. The assay is described as follows: Ovalbumine model, bronchoalveolar lavage cell counts. It counts as in vivo, BALB/c mice. As to conditions: inhalation 5 mM. Here is the method: (§1) In this long-term experiment, 6-8 week old BALB/c female mice were sensitized on days 1 and 8 by intra-peritoneal injection (i.p.) of ovalbumine (10 μg) (Sigma-Aldrich, Schnelldorf, Germany) adsorbed to 2 mg aluminum hydroxide (AlumInject; Perbio, Erembodegem, Belgium). Mice were divided into three groups. In Group 1, a control group was only exposed to saline nebulization by aerosol. The other 2 groups were subjected to ovalbumine (1%) nebulization. Before each challenge with ovalbumine, mice were either exposed to saline nebulization (Group 2) or KMUP-1 nebulization (5 mM) for 30 min by aerosol (Group 3).
After the sacrifice of mice, a cannula was placed in the trachea for bronchoalveolar lavage by gentle manual aspiration, using cold PBS-EDTA (0.05 mM, 1 ml) (Calbiochem, Darmstadt, Germany) as previously described (Cataldo D D, et al., 2002). The broncho alveolar lavage fluid (BALF) was centrifuged at 4° C. for 10 min (1200 rpm). The supernatant was frozen at −80° C. for protein assessment and the cell pellet was resuspended in PBS-EDTA (0.05 mM, 1 ml). Total cell counts were performed manually using a thoma chamber. The differential cell counts were performed using morphologic criteria on cytocentrifuged preparations (Cytospin) after staining with Diff-Quick (Dade, Belgium). Differential cell counts were performed by one blinded observer unaware of the experimental treatment.

Assay [4] deals with MMP-9. Put plainly: Ovalbumine model, MMP-9 expression, zymography and immunostaining. It counts as in vivo, BALB/c mice. The conditions noted are these: inhalation 5 mM; non-treatment allergic animal 100 %. Here is the method:
as §1
The gelatinolytic activity of MMP-9 was measured by gelatin zymography as described previously (Cataldo D D, et al., 2002). Briefly, BALF (10 μl) was subjected to electrophoresis in 10% polyacrylamide gel containing gelatin (1 mg/ml). The gel was washed in 2.5% Triton X-100 to permit re-naturation of gelatinases and stained with Coomassie blue after overnight incubation. Destaining visualized clear zones of lysis against a blue background indicated the gelatinase activity (Hibbs, M S, et al., 1985).
The lung tissues were homogenized, washed with PBS and incubated in lysis buffer in addition to a protease inhibitor cocktail (Sigma, St. Louis, Mo.) to obtain extracts of lung proteins. A Western blot analysis was performed as described previously (Wu B N, et al., 2006). The samples were loaded to 10% SDS-PAGE gels and were separated at 120 V for 90 min. The blots were incubated with anti-eNOS antibody diluted at a ratio of 1:500, anti-sGCα1 antibody diluted at a ratio of 1:2000, anti-PKG antibody diluted at a ratio of 1:500, anti-VCAM-1 antibody diluted at a ratio of 1:500, anti-ICAM-1 antibody diluted at a ratio of 1:500, and anti-MMP-9 antibody diluted at a ratio of 1:600 overnight at 4° C. The membranes were stripped and re-blotted with anti-actin antibody (Sigma, St. Louis, Mo.) to verify the equal loading of protein in each lane.
Immunohistochemical analysis of eNOS enhancement by KMUP-1 was performed as follows. The lungs were perfused with saline followed by 10% formalin and then placed in 10% formalin for paraffin embedding. The lung tissues were cut into […] sections onto slides, dewaxed in 100% xylene, and then re-hydrated in graded alcohol solutions. Throughout the procedures, slides were washed as appropriate in PBS. Antigen retrieval was performed by microwave treatment for eNOS immunostaining. Sections were treated with 3% H2O2 (10 min) to inhibit endogenous peroxidases and incubated with normal serum (60 min) to reduce nonspecific binding of secondary antibodies. Sections were then incubated at 4° C. overnight with eNOS antibodies. After washing off unbounded primary antibodies, sections were incubated with secondary biotinylated antibodies against mouse or rabbit (DAKO Co., Japan) (60 min), followed by incubation in avidin/biotin/horseradish peroxidase complex (DAKO Co., Japan) (30 min) Subsequently, peroxidase activity was visualized by incubation (3 min) with 0.05% 3,3′-diaminobenzidine (DAKO Co., Japan), which gives a brown reaction product. The reaction was stopped by washing with water. The slides were counterstained with hematoxylin. For immunostaining of MMP-9 in lung tissue, the de-paraffinized 3-5 μm sections of lung tissue was performed as above eNOS, but using MMP-9 antibody.

In the next assay the test system is PDE-5A. Put plainly: Protein expression (optical density %) after KMUPs salts, PDE-5A. It counts as cell-based. The conditions noted are these: 10 μM, 120 min; without treatment control 100 %.
In the next assay the test system is IL-13. The assay is described as follows: Ovalbumine model, plasma IL-13 (ELISA). Format: in vivo, mice. The conditions noted are these: OVA-sens; oral 2.5 mg Kg^−1; OVA-sens alone 35 ± 6. How it is done: as §1
For the next assay, the system named is IL-5. Put plainly: Ovalbumine model, plasma IL-5 (ELISA). Format: in vivo, mice. As to conditions: OVA-sens; oral 2.5 mg Kg^−1; OVA-sens alone 43 ± 6. Here is the method: as §1
(In general: An ELISA detects its analyte on a solid surface through an enzyme-linked reagent.)

Another assay relates to ROCK. Put plainly: 5-HT-induced ROCK expression in PASMCs. The conditions noted are these: 10 μM. It counts as cell-based, Wistar rats. Here is the method:
PASMCs were stimulated with 5-HT or not, as indicated. Cells were treated with KMUP-1 for 24 h before 5-HT stimulation. Whole lysates were collected and resolved by SDS-PAGE as previously described. Primary antibodies were anti-β-actin at: 1:10,000 dilution and anti-RhoA, anti-ROCK, antiphospho-ERK1/2, anti-phospho-AKT, anti-ERK1/2, anti-AKT, anti-5HTT, anti-5-HT2B and anti-eNOS at 1:1000. All blots were incubated with antibodies at 4° C. overnight. After being washed, the appropriate secondary antibodies were added at a dilution of 1:1000 for 1 h at room temperature. After extensive washing, blots were developed with a Super Signal enhanced chemiluminescence kit (Biorad, CA, USA) and visualized on Kodak AR film.
The expression of RhoA/ROCK and phosphorylation of ERK1/2 and AKT kinase in PASMCs were assessed by incubating the PASMCs with 5-HT (10 μM) for 15 min (peak time for RhoA/ROCK, ERK1/2 and AKT phosphorylation) and 5-HTT for 10 min (peak time for 5-HTT) after KMUP-1 (1-100 μM) was added to the culture of PASMCs for 24 h.

Regarding `Cl.Cn1c(=O)c2c(ncn2CCN2CCN(c3ccccc3[N+](=O)[O-])CC2)n(C)c1=O` [KMUP-4 HCl, 7-[2-[4-(2-nitrobenzene)piperazinyl]ethyl]-1,3-dimethylxanthine hydrochloride], the values for the iNOS in the assay on iNOS (inhalation 5 mM) and with iNOS (oral 2.5 mg Kg^−1) were 35 ± 7.5% and 31 ± 6.7%, respectively. Moreover, the “ROCKII protein expression, optical densitivity %” value with ROCKII was 37 ± 2.8%. In addition, the figures for the Neurophil in the assay with BALF cells [1] and in the assay on BALF cells [3] (OVA 1.0 ± 0.2) were 1.1 ± 0.3 × 10^4 cell/ml and 1.1 ± 0.2 × 10^4 cell/ml, respectively. Besides, the Lymphocyte in the assay on BALF cells [1] is recorded as 1.7 ± 1.8 × 10^4 cell/ml; in the assay on BALF cells [3] (OVA 2.4 ± 0.3), 1.6 ± 3.4 × 10^4 cell/ml. Further, the monocyte in the assay on BALF cells [1] is recorded as 1.7 ± 1.8 × 10^4 cell/ml; in the assay on BALF cells [3] (OVA 2.4 ± 0.3), 1.6 ± 3.4 × 10^4 cell/ml. In addition, the “(Table 5)” value with BALF cells [1] was 20 ± 3.5 × 10^4 cell/ml; in the assay with BALF cells [3] (OVA 37.2 ± 2.8) it was 21 ± 6.7 × 10^4 cell/ml. Also, the Eosinophil is 20 ± 3.5 × 10^4 cell/ml in the assay on BALF cells [1] and 21 ± 6.7 × 10^4 cell/ml in the assay on BALF cells [3] (OVA 37.2 ± 2.8). The Total cells in the assay with BALF cells [1] is reported as 51.8 ± 0.4 × 10^4 cell/ml; in the assay with BALF cells [3] (OVA 65.3 ± 3.4) it was 53.4 ± 0.3 × 10^4 cell/ml. Moreover, in the assay with eNOS, the “eNOS protein expression, optical densitivity %” value amounted to 135 ± 7.5%. The MMP-9 with MMP-9 [2] is 56 ± 3.4%; in the assay with MMP-9 [4], 37 ± 2.8%. In addition, the “PDE-5A protein expression, optical densitivity %” value with PDE-5A amounted to 73 ± 3.4%.
Regarding `CCC(C)(C)C(=O)O[C@H]1C[C@@H](C)C=C2C=C[C@H](C)[C@H](CC[C@@H]3C[C@@H](O)CC(=O)O3)[C@H]21` [Simvastatin, reference compound], the iNOS with iNOS (oral 2.5 mg Kg^−1) is listed as 58 ± 12.4%. In addition, in the assay on BALF cells [1], the Neurophil is on record as 1.5 ± 0.4 × 10^4 cell/ml, the Lymphocyte is on record as 1.8 ± 0.7 × 10^4 cell/ml, the monocyte was 1.8 ± 0.7 × 10^4 cell/ml and the “(Table 5)” value is 27 ± 1.6 × 10^4 cell/ml. Moreover, in the assay with BALF cells [1], the Eosinophil is recorded as 27 ± 1.6 × 10^4 cell/ml and the Total cells is reported as 52.5 ± 0.4 × 10^4 cell/ml. The same compound returned an IL-13 with IL-13 of 41 ± 2.5 pg/mL. Besides, in the assay on MMP-9 [2], the MMP-9 is listed as 41 ± 2.5%. The same compound came in with an IL-5 in the assay with IL-5 of 158 ± 12.4 pg/mL.
For `C[C@@H](N)[C@H]1CC[C@H](C(=O)Nc2ccncc2)CC1` [Y27632, reference compound], the ROCK expression result in the assay with ROCK is recorded as “inhibited”.
